According to patent US20230390315A1, “COMPOSITIONS AND METHODS FOR TREATING ISCHEMIC CONDITIONS” (The Regents of the University of California, priority 2020, published 2023):

Legend:
ERK and AKT = assay: Western blot of ERK and AKT activation in HUVEC and hDMVECs; format: cell-based, human; settings: 40 uM; HUVEC and hDMVECs
Protocol: (§1) Cells were allowed to reach 80% confluency in 12-well plates. […] At various time points, plates were taken out of the incubator and kept on ice. Cell monolayers were first washed once with ice-cold PBS before lysis with 250 μl of Pierce RIPA buffer (ThermoFisher Scientific, Rockford, IL) or use 50 mM Tris-HCl (pH 7.6), 150 mM NaCl, 10% Glycerol, 1% NP-40 containing protease/Phosphatase inhibitor cocktail (100×) (Cell signaling, #5872). Lysates were collected and mixed with 4×Bolt LDS Sample Buffer (Novex, Carlsbad, CA) in the presence of Halt protease inhibitors and phosphatase inhibitor cocktail (ThermoFisher scientific, #NP0007). The samples were subjected to SDS-PAGE (Bolt 4-12% Bis-Tris Plus, Invitrogen) using Bolt MES SDS running buffer or NuPAGE 3-8% Tris-Acetate gel using Tris-Acetate SDS running buffer (Novex). HUVECs (passage 6-8) were plated in EBM-2 basal medium (Lonza) with 0.2% FBS. […] Equal amounts of protein lysates were analyzed by SDS-PAGE and blotted with the indicated antibodies. Proteins were transferred using Tris-Glycine buffer with 20% Methanol (Proteonomics grade) (Apex BioResearch Products). Membranes were first incubated with 5% milk in TBST, pH 7.6 (TEKnova, Hollister, CA), followed by blotting with primary and secondary antibodies. […]

BCEC = BCEC transwell migration assay; format: cell-based, bovine; settings: ManN at 40 uM
Protocol: HUVECs (passage 6-8) were cultured and serum-starved as described in “Western Blots”. Ten thousand cells in 150 μl of EBM-2 medium were then added to the upper chamber of 8 μm pore size cell culture inserts (Falcon) coated with 0.1% gelatin. The lower compartment was filled with 600 μl EBM-2 medium containing various agents. The plates were incubated at 37° C. to allow migration. After 4 hrs, cells were fixed with 4% PFA for 20 min and then stained with crystal violet (Sigma-Aldrich) for 20 min at RT. Migrated cells on the bottom side of the insert membrane were quantified by counting whole area of the insert at 40× magnification. The experiments were carried out in triplicate and repeated three times. BCEC migration was set up similarly, except that wells were coated with FN, cells were suspended in 1% serum media and migration time was 18-24 hrs.

HUVEC = HUVEC proliferation assay; format: cell-based, human
Protocol: Proliferation assays with BCECs and BRECs were performed. Log-phase growing BCECs or BRECs (passage <10) were trypsinized, re-suspended and seeded in 96-well plates (no coating) in low-glucose DMEM supplemented with 10% bovine calf serum, 2 mM glutamine, and antibiotics (growth medium), at a density of 1200-1500 cells per well in 200 μl volume. All reagents were added at the indicated final concentrations. After 3-6 days, cells were incubated with AlamarBlue for 4 hrs. Fluorescence was measured at 530 nm excitation wavelength and 590 nm emission wavelength. The experiments were repeated at least three times. To create a hypoxic condition, cells were placed in a hypoxia incubator with a mixture of gas consisting of 1% 02, 5% CO2 and 94% Nz. On each 96-well plate, untreated and VEGF-treated (10/ng/ml) wells were included to monitor plate-to-plate variations. 20% methanol or 0.05% DMSO served as negative controls. 0.05% DMSO served as negative controls when Cas was tested in these cells. Human RMVECs and human adult DMVECs were split into Gelatin-coated 96 wells (2000 cells per well) in low glucose DMEM containing 10% FBS. 1200 cells/well was set up for proliferation assay in low glucose media containing FBS. Data was collected at day 4 or 5. HUVEC (p7-10) were grown on gelatin-coated plate until it reached 70-80% confluency.
On the day of the assay, cells were dissociated with 0.05% trypsin, which was neutralized with 0.5% FBS-containing EBM. Cells were briefly spun and then re-suspended in 0.5% FBS-media. Cells were counted and plated in 96-well, 1000 cells/well. Triplicate wells were used for each treatment. Data were collected at day 3, and then cells were fixed in 4% paraformaldehyde for 15 min before adding crystal violet. Cell-covered areas were quantified after taking pictures by Image J software.

VEGFR2 = assay: Western blot of VEGFR2 protein mass in human ECs; format: cell-based; settings: hRMVEC, HUVEC and hDMVECs; 40 uM ManN
Protocol: as §1

[1] = tested on: αv integrin, Neuropilin-1, VE-cadherin and bFGFR1; assay: Protein mass of other N-glycosylated proteins in BCEC; format: cell-based, bovine
Protocol: as §1

Calu6 = Calu6 proliferation assay; format: cell-based, human
Protocol: Proliferation assays with fibroblasts were done in low-glucose DMEM containing 1% FBS, with or without 10 ng/ml bFGF, or 100 ng/ml human EGF and the assay was ended at day 3. ARPE-19 cells were gently lifted with 0.025% trypsin and plated in RtEGM media (Clonetics) containing 2% FBS, L-glutamine, human bFGF and GA-1000. Once cells were attached to plates, serum-free RtEGM media was used to maintain the cultures. For proliferation assays, 1500 human RPE cells were plated into 96-well plates in low-glucose DMEM containing 1% FBS. A673, U87MG, Calu6 and AML12 cells were grown until confluent and were then harvested and re-suspended in appropriate assay media. For proliferation assays, cells were plated at the density of 1000-2000 cells/well in low-glucose DMEM containing 5% FBS or otherwise stated. Bovine pituitary cells (pituitary folliculostellate cells) were isolated as previously described. For proliferation assays with human epidermal keratinocytes, human DMVECs and human dermal fibroblast cells, 1000 cells/well were plated in low-glucose DMEM containing 1% FBS with or without various growth factors. The assay was ended at day 3 for bovine pituitary cells and at day 4 for all the other cell types. […] Four days later, tumor cell growth was measured by the MTS assay (Promega, Madison, WI), a colorimetric assay that measures metabolic activity of viable cells. […]

[2] = in vivo

Compound | activation of ERK and AKT (ERK and AKT) | additivity with VEGF in promoting BCEC migration (BCEC) | additivity with VEGF on proliferation (HUVEC; HUVEC) | toxicity (HUVEC; HUVEC, at 5 mM) | HUVEC growth (HUVEC; ManN by itself) | change in VEGFR2 protein mass (VEGFR2) | protein mass of other N-glycosylated receptors/adhesion molecules [1] | growth of Calu6 (Calu6) | plasma free ManN peak level ([2]; male, C57BL/6, mouse, po) | time of plasma peak level ([2]; male, C57BL/6, mouse, po) | free ManN in ischemic leg muscle ([2]; male, C57BL/6, mouse, po, 2 h) | plasma free ManN detectable relative to peak ([2]; mouse)
O=C1N[C@@H]2[C@@H](O)[C@@H](O)[C@H](O)[C@@H](CO)N2C1=O [Kif, Kifunensine, reference compound] | significantly activate |  |  |  |  |  |  |  |  |  |  | 
N[C@H](C=O)[C@@H](O)[C@H](O)[C@H](O)CO [ManN, 2-Amino-2-deoxy-D-mannose] |  | significant additivity with VEGF | dose-dependent additivity with VEGF | minimal toxicity | stimulated | significant change in VEGFR2 protein mass | affected as well | did not promote growth | ~100 nmol/ml plasma | 1 h | 0.17+/−0.18 nmol/mg protein | about half of that amount
